These are literature values, as cited in US20070297991A1, “NEURAL CONDUIT AGENT DIS[…] SMOKING CESSATION AND OTHER APPLICATIONS” (MINU, L.L.C., priority 2006, published 2007).

For the series the following is noted: in vivo.

For `CN1CCCC1c1cccnc1` (stereo not shown) [nicotine], the plasma half-life result is reported as “approximately two”.
